Key:
[1] = tested on: Chlorella sp. ATCC 7516; experiment: Algal efficacy testing of dry paint film, modified ASTM 5589; format: cell-based
Description: (§1) These paints were then diluted with a biocide free acrylic/silicone based paint and mixed to prepare targeted concentrations of biocide combinations for the testing. The total biocides concentrations obtained were 125, 250, 500, 1000, 2000 and 5000 ppm. After biocides addition or dilution, the paints were mixed 90 seconds with the horse power shaker (AXEL 75M3372/Agitateur SO-10MI) until uniformity was achieved. […] After one day, the paints were applied to Schleicher & Schuell filter paper at 280 μm wet film thickness and dried for 3 days at room temperature avoiding direct exposure to sunlight. […] This sample size allowed for an agar border when the sample disc was placed into the well of the test plate.
Algal efficacy was tested according to modified ASTM 5589 which is a standard accelerated test method for determining resistance of various coatings (including paints) to algal defacement. To accommodate for high-throughput screening, this method was scaled down from petri plates to 6-well plates. Bold Modified Basal Freshwater Nutrient Solution was used as growth medium for the algal culture and Bold's agar was used for the efficacy testing. A single coupon was placed with a pair of sterile forceps at the center of the agar plug (on top) with the painted surface facing upwards. The algal inoculum was prepared by diluting an exponentially growing culture of Chlorella sp. to 1×10^6 cfu/ml.
Each well that contains a tested coupon was inoculated with 1750 μl of algal suspension (1×10^6 cfu/ml) making sure that the whole surface (paint film as well as the agar surrounding it) was evenly covered. The plates were incubated at room temp (21° C.-25° C.) with cyclic exposure to 14 hours fluorescent light followed by 10 hours darkness, for a period of three weeks.
(§2) The SI is calculated based on F. C. Kull et.
SI=Qa/QA+Qb/QB • Qa=the concentration of Antimicrobial A in the blend • QA=the concentration of Antimicrobial A as the only biocide • Qb=the concentration of Antimicrobial B in the blend • QB=the concentration of Antimicrobial B as the only antimicrobial […]

[2] = tested on: Aspergillus niger DSMZ 1957; experiment: Fungal efficacy testing of dry paint film, modified ASTM 5590; format: cell-based; conditions: A. niger 1957, three weeks
Description: as §1
ASTM 5590 is a standard accelerated test method for determining resistance of various coatings (including paints) to fungal defacement. To accommodate for high-throughput screening, this method was scaled down from petri plates to 6-well plates. […] A single coupon was placed with a pair of sterile forceps at the center of the agar plug (on top) with the painted surface facing upwards.
as §2
SI=Qa/QA+Qb/QB • Qa=the concentration of Antimicrobial A in the blend • QA=the concentration of Antimicrobial A as the only biocide • Qb=the concentration of Antimicrobial B in the blend • QB=the concentration of Antimicrobial B as the only antimicrobial
SI value of <1 in the formula indicates a synergism of the blended biocides exists.

Row | SMILES | inhibition at 5000 ppm ([1]; 504 h, total conc 5000 ppm, three weeks, color intensity vs blank) [%] | Total conc, ppm (concentration used as minimum inhibitory concentration for SI; pass level 75% inhibition) ([1]; total active ingredient in liquid paint, dry film, three weeks) [ppm] | Total conc, ppm (concentration used as minimum inhibitory concentration for SI; pass level 75% inhibition; where pass not reached, concentration tested) ([2]; total active ingredient in liquid paint, dry film) [ppm] | inhibition at 2000 ppm ([2]; Aspergillus niger, DSMZ1957, 504 h, total conc 2000 ppm, area covered, increments of 5%) [%] | inhibition at 1000 ppm ([1]; 504 h) [%] | inhibition at 10000 ppm ([2]; Aspergillus niger, DSMZ1957, 504 h, total conc 10000 ppm, area covered, increments of 5%) [%]
1 | Cc1ccc(S(=O)(=O)C(I)I)cc1 [DIMTS, Diiodomethyl p-tolyl sulfone] | 95 | 5000 | 2000 | 95 | – | –
2 | O=c1[nH]c2c(c(=O)n1C1CCCCC1)CCC2 [LENACIL, 3-Cyclohexyl-6,7-dihydro-1H-cyclopentapyrimidine-2,4-(3H,5H)-dione] | – | – | – | – | 90 | 0

From patent US20190119504A1 (Dow Global Technologies LLC, priority 2016, published 2019)
